From patent US20240208992A1, “MACROCYCLES AS CFTR MODULATORS” (Idorsia Pharmaceuticals Ltd, priority 2021, published 2024)

Target: human F508del-CFTR (Homo sapiens, UniProt P13569, DEL508-508)
Test: F508del-CFTR cell surface expression (corrector activity), DiscoveRx ß-galactosidase complementation chemiluminescence assay in recombinant U2OS cell line;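 further: U2OS cells co-expressing ProLink-tagged F508del-CFTR and a membrane-anchored enzyme acceptor, where more surface CFTR restores β-galactosidase activity measured by chemiluminescence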
Details: U2OS cells, 16h compound incubation; for EC50: EC50, F508del-CFTR cell surface expression, geomean of several measurements; for Emax: U2OS, in relation to the Emax of the corrector lumacaftor (=100%), arithmetic mean

Sequence of human F508del-CFTR (P13569 with tags, fused parts or gaps DEL508-508): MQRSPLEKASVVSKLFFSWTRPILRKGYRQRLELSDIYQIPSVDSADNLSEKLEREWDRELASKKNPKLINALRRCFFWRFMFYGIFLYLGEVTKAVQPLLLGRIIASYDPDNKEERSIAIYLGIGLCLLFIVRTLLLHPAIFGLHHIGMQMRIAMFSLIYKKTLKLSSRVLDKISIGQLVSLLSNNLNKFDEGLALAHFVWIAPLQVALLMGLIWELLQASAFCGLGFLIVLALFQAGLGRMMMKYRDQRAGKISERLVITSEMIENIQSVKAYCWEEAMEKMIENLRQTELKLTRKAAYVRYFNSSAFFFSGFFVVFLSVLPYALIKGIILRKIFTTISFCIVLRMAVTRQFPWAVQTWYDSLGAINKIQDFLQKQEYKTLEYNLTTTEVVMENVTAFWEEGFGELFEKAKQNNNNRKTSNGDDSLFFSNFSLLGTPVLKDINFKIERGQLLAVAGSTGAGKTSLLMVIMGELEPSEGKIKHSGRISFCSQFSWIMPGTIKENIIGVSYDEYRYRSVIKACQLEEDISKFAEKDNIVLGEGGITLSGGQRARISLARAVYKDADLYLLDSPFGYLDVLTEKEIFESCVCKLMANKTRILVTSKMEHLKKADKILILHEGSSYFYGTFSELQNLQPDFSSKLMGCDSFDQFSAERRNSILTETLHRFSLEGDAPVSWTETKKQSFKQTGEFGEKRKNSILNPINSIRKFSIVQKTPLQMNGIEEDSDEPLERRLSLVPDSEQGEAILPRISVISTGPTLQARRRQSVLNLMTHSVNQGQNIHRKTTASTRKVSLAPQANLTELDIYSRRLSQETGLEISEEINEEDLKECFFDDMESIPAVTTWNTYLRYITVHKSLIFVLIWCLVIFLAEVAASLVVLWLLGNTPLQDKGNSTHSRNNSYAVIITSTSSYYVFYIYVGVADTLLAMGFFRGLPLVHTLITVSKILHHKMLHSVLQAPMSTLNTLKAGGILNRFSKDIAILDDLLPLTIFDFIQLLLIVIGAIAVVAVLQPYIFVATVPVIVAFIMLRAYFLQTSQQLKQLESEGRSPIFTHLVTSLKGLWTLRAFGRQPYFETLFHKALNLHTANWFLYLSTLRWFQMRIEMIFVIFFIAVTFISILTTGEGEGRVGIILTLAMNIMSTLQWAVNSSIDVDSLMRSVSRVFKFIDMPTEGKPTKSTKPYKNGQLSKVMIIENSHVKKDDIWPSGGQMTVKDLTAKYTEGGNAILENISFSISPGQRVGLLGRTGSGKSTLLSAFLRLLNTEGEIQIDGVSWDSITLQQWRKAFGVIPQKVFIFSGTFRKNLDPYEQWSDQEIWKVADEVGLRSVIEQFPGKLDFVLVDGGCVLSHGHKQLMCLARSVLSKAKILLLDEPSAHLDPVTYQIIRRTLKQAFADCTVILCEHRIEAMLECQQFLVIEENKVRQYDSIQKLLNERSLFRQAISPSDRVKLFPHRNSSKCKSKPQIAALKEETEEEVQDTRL

Row | SMILES | EC50 [nM] | Emax [%]
1 | COc1nc(C)cc2c1C(=O)N[C@H](C(=O)NC[C@@H](O)c1ccccc1)CC(=O)N(C)[C@@H](CC(C)C)C(=O)N(C)[C@H](CC(C)C)C(=O)N[C@H](Cc1ccccc1)CO2 [Example 828, (3R,6R,9S,13S)-3-benzyl-N-((S)-2-hydroxy-2-phenylethyl)-6,9-diisobutyl-16-methoxy-7,10,18-trimethyl-5,8,11,15-tetraoxo-2,3,4,5,6,7,8,9,10,11,12,13,14,15-tetradecahydropyrido[3,4-p][1]oxa[4,7,10,14]tetraazacycloheptadecine-13-carboxamide] | 299 | 317
2 | CC(C)C[C@H]1C(=O)N2CCCC[C@@H]2C(=O)N[C@H](Cc2ccccc2)COc2ccc3ncc(F)cc3c2C(=O)N[C@H](C(=O)NCCn2nnc(C3CC3)n2)CC(=O)N1C [Example 829, (9S,13S,19aR,22R)-22-benzyl-N-(2-(5-cyclopropyl-2H-tetrazol-2-yl)ethyl)-5-fluoro-13-isobutyl-12-methyl-7,11,14,20-tetraoxo-7,8,9,10,11,12,13,14,17,18,19,19a,20,21,22,23-hexadecahydro-16H-pyrido[2′,1′:6,7][1]oxa[4,7,10,14]tetraazacycloheptadecino[16,17-f]quinoline-9-carboxamide] | 142 | 320
3 | COCCn1cc(CCNC(=O)[C@@H]2CC(=O)N(C)[C@@H](CC(C)C)C(=O)N(C)C3(CC3)C(=O)N[C@H](Cc3ccccc3)COc3cnc4ccc(F)cc4c3C(=O)N2)cn1 [Example 830, (3′S,7′S,13′R)-13′-benzyl-20′-fluoro-7′-isobutyl-N-(2-(1-(2-methoxyethyl)-1H-pyrazol-4-yl)ethyl)-6′,9′-dimethyl-1′,5′,8′,11′-tetraoxo-2′,3′,4′,5′,6′,7′,8′,9′,11′,12′,13′,14′-dodecahydro-1′H-spiro[cyclopropane-1,10′-[1]oxa[4,7,10,14]tetraazacycloheptadecino[17,16-c]quinoline]-3′-carboxamide] | 1040 | 310
4 | COc1nccc2c1C(=O)N[C@H](C(=O)NCC(F)(F)c1nc(C3CC3)no1)CC(=O)N(C)[C@@H](CC(C)C)C(=O)N1CCCC[C@@H]1C(=O)N[C@H](Cc1ccccc1)CO2 [Example 831, (7S,11S,17aR,20R)-20-benzyl-N-(2-(3-cyclopropyl-1,2,4-oxadiazol-5-yl)-2,2-difluoroethyl)-11-isobutyl-4-methoxy-10-methyl-5,9,12,18-tetraoxo-5,6,7,8,9,10,11,12,15,16,17,17a,18,19,20,21-hexadecahydro-14H-dipyrido[2,1-f:3′,4′-p][1]oxa[4,7,10,14]tetraazacycloheptadecine-7-carboxamide] | 491 | 231
5 | COc1nccc2c1C(=O)N[C@H](C(=O)NCCn1nc3ccccc3n1)CC(=O)N(C)[C@@H](CC(C)C)C(=O)N1CCCC[C@@H]1C(=O)N[C@H](Cc1ccccc1)CO2 [Example 832, (7S,11S,17aR,20R)-N-(2-(2H-benzo[d][1,2,3]triazol-2-yl)ethyl)-20-benzyl-11-isobutyl-4-methoxy-10-methyl-5,9,12,18-tetraoxo-5,6,7,8,9,10,11,12,15,16,17,17a,18,19,20,21-hexadecahydro-14H-dipyrido[2,1-f:3′,4′-p][1]oxa[4,7,10,14]tetraazacycloheptadecine-7-carboxamide] | 518 | 367
6 | COc1nccc2c1C(=O)N[C@H](C(=O)NCCn1nnc(C3CC3)n1)CC(=O)N(C)[C@@H](CC(C)C)C(=O)N1CCCC[C@@H]1C(=O)N[C@H](Cc1ccccc1)CO2 [Example 833, (7S,11S,17aR,20R)-20-benzyl-N-(2-(5-cyclopropyl-2H-tetrazol-2-yl)ethyl)-11-isobutyl-4-methoxy-10-methyl-5,9,12,18-tetraoxo-5,6,7,8,9,10,11,12,15,16,17,17a,18,19,20,21-hexadecahydro-14H-dipyrido[2,1-f:3′,4′-p][1]oxa[4,7,10,14]tetraazacycloheptadecine-7-carboxamide] | 615 | 411
7 | C#Cc1nn(CCNC(=O)[C@@H]2CC(=O)N(C)[C@@H](CC(C)C)C(=O)N3CCCC[C@@H]3C(=O)N[C@H](Cc3ccccc3)COc3cc(C)nc(OC)c3C(=O)N2)nc1C [Example 834, (7S,11S,17aR,20R)-20-benzyl-N-(2-(4-ethynyl-5-methyl-2H-1,2,3-triazol-2-yl)ethyl)-11-isobutyl-4-methoxy-2,10-dimethyl-5,9,12,18-tetraoxo-5,6,7,8,9,10,11,12,15,16,17,17a,18,19,20,21-hexadecahydro-14H-dipyrido[2,1-f:3′,4′-p][1]oxa[4,7,10,14]tetraazacycloheptadecine-7-carboxamide] | 240 | 300
8 | COc1nc(C)cc2c1C(=O)N[C@H](C(=O)NCCn1nnc(C3CC3)n1)CC(=O)N(C)[C@@H](CC(C)C)C(=O)N1CCCC[C@@H]1C(=O)N[C@H](Cc1ccccc1)CO2 [Example 835, (7S,11S,17aR,20R)-20-benzyl-N-(2-(5-cyclopropyl-2H-tetrazol-2-yl)ethyl)-11-isobutyl-4-methoxy-2,10-dimethyl-5,9,12,18-tetraoxo-5,6,7,8,9,10,11,12,15,16,17,17a,18,19,20,21-hexadecahydro-14H-dipyrido[2,1-f:3′,4′-p][1]oxa[4,7,10,14]tetraazacycloheptadecine-7-carboxamide] | 363 | 326
9 | COc1nc(C)cc2c1C(=O)N[C@H](C(=O)NCCn1ncc(C#N)n1)CC(=O)N(C)[C@@H](CC(C)C)C(=O)N1CCCC[C@@H]1C(=O)N[C@H](Cc1ccccc1)CO2 [Example 836, (7S,11S,17aR,20R)-20-benzyl-N-(2-(4-cyano-2H-1,2,3-triazol-2-yl)ethyl)-11-isobutyl-4-methoxy-2,10-dimethyl-5,9,12,18-tetraoxo-5,6,7,8,9,10,11,12,15,16,17,17a,18,19,20,21-hexadecahydro-14H-dipyrido[2,1-f:3′,4′-p][1]oxa[4,7,10,14]tetraazacycloheptadecine-7-carboxamide] | 967 | 257
10 | CC(C)C[C@H]1C(=O)N(C)[C@H](Cc2nc(-c3ccc(F)cn3)no2)C(=O)N[C@H](Cc2ccccc2)COc2cnc3ccc(F)cc3c2C(=O)N[C@H](C(=O)NCCn2ncc(C3CC3)n2)CC(=O)N1C [Example 837, (3S,7S,10R,13R)-13-benzyl-N-(2-(4-cyclopropyl-2H-1,2,3-triazol-2-yl)ethyl)-20-fluoro-10-((3-(5-fluoropyridin-2-yl)-1,2,4-oxadiazol-5-yl)methyl)-7-isobutyl-6,9-dimethyl-1,5,8,11-tetraoxo-1,2,3,4,5,6,7,8,9,10,11,12,13,14-tetradecahydro-[1]oxa[4,7,10,14]tetraazacycloheptadecino[17,16-c]quinoline-3-carboxamide] | 198 | 358
11 | CC(C)C[C@H]1C(=O)N(C)C2(CC(F)(F)C2)C(=O)N[C@H](Cc2ccccc2)COc2cnc3ccc(F)cc3c2C(=O)N[C@H](C(=O)NCCn2nnc(C3CC3)n2)CC(=O)N1C [Example 838, (3′S,7′S,13′R)-13′-benzyl-N-(2-(5-cyclopropyl-2H-tetrazol-2-yl)ethyl)-3,3,20′-trifluoro-7′-isobutyl-6′,9′-dimethyl-1′,5′,8′,11′-tetraoxo-2′,3′,4′,5′,6′,7′,8′,9′,11′,12′,13′,14′-dodecahydro-1′H-spiro[cyclobutane-1,10′-[1]oxa[4,7,10,14]tetraazacycloheptadecino[17,16-c]quinoline]-3′-carboxamide] | 118 | 358
12 | COc1cc(CCNC(=O)[C@@H]2CC(=O)N(C)[C@@H](CC(C)C)C(=O)N(C)C3(CC(F)(F)C3)C(=O)N[C@H](Cc3ccccc3)COc3cnc4ccc(F)cc4c3C(=O)N2)on1 [Example 839, (3′S,7′S,13′R)-13′-benzyl-3,3,20′-trifluoro-7′-isobutyl-N-(2-(3-methoxyisoxazol-5-yl)ethyl)-6′,9′-dimethyl-1′,5′,8′,11′-tetraoxo-2′,3′,4′,5′,6′,7′,8′,9′,11′,12′,13′,14′-dodecahydro-1′H-spiro[cyclobutane-1,10′-[1]oxa[4,7,10,14]tetraazacycloheptadecino[17,16-c]quinoline]-3′-carboxamide] | 123 | 336
13 | CC(C)C[C@H]1C(=O)N(C)[C@H](Cc2nc(-c3ccc(F)cn3)no2)C(=O)N[C@H](Cc2ccccc2)COc2cnc3ccc(F)cc3c2C(=O)N[C@H](C(=O)NCCn2nc3ccccc3n2)CC(=O)N1C [Example 840, (3S,7S,10R,13R)-N-(2-(2H-benzo[d][1,2,3]triazol-2-yl)ethyl)-13-benzyl-20-fluoro-10-((3-(5-fluoropyridin-2-yl)-1,2,4-oxadiazol-5-yl)methyl)-7-isobutyl-6,9-dimethyl-1,5,8,11-tetraoxo-1,2,3,4,5,6,7,8,9,10,11,12,13,14-tetradecahydro-[1]oxa[4,7,10,14]tetraazacycloheptadecino[17,16-c]quinoline-3-carboxamide] | 128 | 363
14 | CC(C)C[C@H]1C(=O)N(C)C2(CC(F)(F)C2)C(=O)N[C@H](Cc2ccccc2)COc2cnc3ccc(F)cc3c2C(=O)N[C@H](C(=O)NCCc2nc(C3CC3)no2)CC(=O)N1C [Example 841, (3′S,7′S,13′R)-13′-benzyl-N-(2-(3-cyclopropyl-1,2,4-oxadiazol-5-yl)ethyl)-3,3,20′-trifluoro-7′-isobutyl-6′,9′-dimethyl-1′,5′,8′,11′-tetraoxo-2′,3′,4′,5′,6′,7′,8′,9′,11′,12′,13′,14′-dodecahydro-1′H-spiro[cyclobutane-1,10′-[1]oxa[4,7,10,14]tetraazacycloheptadecino[17,16-c]quinoline]-3′-carboxamide] | 120 | 271
